Results from US12377035B2, “Peptides for inhibiting cholinergic calcitonin gene-related peptide (CGRP) and acetylcholine (ACH) release or inhibiting sensitization-mediated by TRPV1-mediated excitability in sensory neurons and methods of use thereof” (AZIENDE CHIMICHE RIUNITE ANGELINI FRANCESCO—A.C.R.A.F. …, priority 2018, dated 2025).

Legend:
Type in all cases: cell-based
[1] = tested on: human epidermal keratinocytes (HEKa); experiment: MTT cell viability assay on epidermal keratinocytes; conditions: for % inhibition cell viability: HEKa, 24 hours
Procedure: (§1) This example evaluated effects of the peptides of invention on human epidermal keratinocytes and dermal fibroblasts. Cell viability was determined with the 3-(4,5-dimethyl-2-thiazolyl)-2,5-diphenyl-2H-tetrazolium bromide (MTT) assay. The MTT assay is a colorimetric reaction based on the capacity of the mitochondrial dehydrogenase enzyme to break and transform the tetrazolium rings of MTT. Epidermal keratinocytes (HEKa) were seeded in a previously coated 96 well-plate at 50-60% confluence in 100 μL of supplemented corresponding medium. Dermal fibroblasts (HDFa) were seeded in a 96 well-plate at 70% confluence in 100 μL supplemented medium. For both cell lines, 24 hours after seeding, medium was replaced by fresh supplemented medium containing peptides dissolved at concentration range between 0.1 and 200 μM. All test substances were incubated for 24 hours at 37° C. and 5% CO2. Afterwards, medium was replaced by 0.5 mg/ml of MTT solution for 4 hours in complete medium. Then, medium was carefully removed and 150 μL/well of DMSO were added to solubilize formazan crystals. Plate was protected from light, shaken for 60 seconds and optical density was measured at 570 nm with a reference filter of 620 nm. Table F details effects of peptides of invention on keratinocytes and fibroblasts cell viability expressed as percentage of inhibition.

[2] = tested on: acetylcholine release, human neuroblastoma cell line differentiated to cholinergic neuronal phenotype; experiment: Inhibition of KCl-induced acetylcholine release in a neuroblastoma cell line (Amplex Red); conditions: 50 mM KCl
Procedure: To determine the compound of the invention effects on acetylcholine release, a human neuroblastoma cell line (50.000 cells/well) was used. Cells were differentiated to cholinergic neuronal phenotype for 4 days. Then, cells were pre-incubated for 60 minutes with the compounds (between 0.1 and 100 μM) as acetyl- or palmitoyl-form and conjugated with trifluoroacetate (TFA) or acetate salt. Afterwards, acetylcholine release was induced by membrane depolarization evoked by 15 minutes incubation with 50 mM KCl. Acetylcholine level in supernatants was quantified by using Amplex® Red Acetylcholine Assay Kit (Thermofisher) following manufacturer's instructions. […] Fluorescence (Ex 530 nm/Em 590 nm) was measured in FluorStar equipment. Acetylcholine content was normalized to the total protein content using BCA assay (Pierce) following manufacturer's instructions. Fluorescence measurements were normalized to the maximum signal detected with KCl stimulation in vehicle treated cells. Vesicle exocytosis disruption by the compounds of the invention lead to a decrease of acetylcholine release (Table E).

[3] = tested on: CGRP induced-release on peptidergic sensory neurons (dorsal root ganglia); experiment: Inhibition of capsaicin-induced CGRP release on cultured sensory neurons (CGRP EIA); conditions: 1 hour, 1 μM capsaicin 10 min
Procedure: The induction of the release of calcitonin-gene related peptide (CGRP) with capsaicin enables direct measurement of neuronal exocytosis (Meng J. et al., J. Cell. Sci. (2007) 15; 120(Pt 16):2864-74, and Meng J. et al., Mol. Neurobiol. (2014); 50(2):574-88).
The tested peptides were evaluated by measuring their capability of inhibiting CGRP induced-release on peptidergic sensory neurons. Dorsal root ganglia were seeded (50.000 cells/well) in a 96-well plate previously coated with poly-L-lysine and laminin. After 48 hours seeding, cells were incubated with Hank's Balanced salt solution containing peptides of invention at 20, 50 or 100 μM for 1 hour. Next, cells were stimulated for 10 min with 1 μM capsaicin at 37° C. Then, CGRP content was determined in supernatants using colorimetric based CGRP EIA (Spi-Bio Inc) following manufacturer's instructions. Absorbance measurements (405 nm) were standardized with regard to the maximum signal detected with capsaicin stimulation in vehicle treated cells. Inhibition values of CGRP release were calculated as percentages by considering maximum signal to capsaicin-induced release and minimum as non-stimulated cells. Table D details inhibition values of […] obtained for the peptides of invention.

[4] = tested on: human dermal fibroblasts (HDFa); experiment: MTT cell viability assay on dermal fibroblasts; conditions: for % inhibition cell viability: HDFa, 24 hours
Procedure: as §1

Substance | % inhibition cell viability ([1]; 1 μM) [%] | % inhibition cell viability ([1]; 5 μM) [%] | % inhibition cell viability ([1]; 10 μM) [%] | % inhibition cell viability ([1]; 50 μM) [%] | % inhibition cell viability ([1]; 100 μM) [%] | % inhibition cell viability ([1]; 200 μM) [%] | % Ach release inhibition ([2]; TFA salt, 10 μM) [%] | % CGRP release inhibition ([3]; peptide 20 μM) [%] | % CGRP release inhibition ([3]; peptide 100 μM) [%] | % inhibition cell viability ([4]; 1 μM) [%] | % inhibition cell viability ([4]; 5 μM) [%] | % inhibition cell viability ([4]; 10 μM) [%] | % inhibition cell viability ([4]; 50 μM) [%] | % inhibition cell viability ([4]; 100 μM) [%] | % inhibition cell viability ([4]; 200 μM) [%] | other results
Ac-LRVQMVNMFL-NH2 [SEQ ID NO: 4 acetyl, LRVQMVNMFL] | 13.6 | 2.6 | 6.0 | 19.5 | 31.6 | 41.1 | 84.3 | 14.2 | 77.4 | 14.5 | 28.4 | 37.1 | 40.6 | 41.5 | 22.9 | effect on keratinocyte viability (in words) ([1]; assessed below 50 μM): did not modify keratinocyte viability; % Ach release inhibition ([2]; Acetate salt, 0.1 μM): around 40%; % Ach release inhibition ([2]; TFA salt, 50 μM): 58.9%; % Ach release inhibition ([2]; TFA salt, 100 μM): 6.8%
Ac-MQVWLRMWIDYRAT-NH2 [SEQ ID NO: 2 acetyl, MQVWLRMWIDYRAT] | −1.2 | −1.8 | −0.5 | −4.6 | −0.7 | 1.2 | 78.8 | 49.3 | 55.3 | 10.1 | 12.3 | 8.5 | 1.4 | 7.8 | 24.6 | effect on cell viability (in words) ([1]; human epidermal keratinocytes, up to 200 μM): did not modify cell viability; % Ach release inhibition ([2]; Acetate salt, 1 μM): 41.0%; % Ach release inhibition ([2]; Acetate salt, 10 μM): 55.8%; % Ach release inhibition ([2]; TFA salt, 5 μM): 76.2%; % Ach release inhibition ([2]; TFA salt, 20 μM): 10.9%; effect on cell viability (in words) ([4]; dermal fibroblast, up to 200 μM): did not modify cell viability
